Measurements published in US9040545B2, “Heterocyclyl pyrazolopyrimidine analogues as selective JAK inhibitors” (Cellzome Limited, priority 2010, dated 2015).

Biological target: T1, Aurora B (Homo sapiens, UniProt Q96GD4)
T1 construct: cell lysates from Jurkat cells (ATCC TIB-152) used; endogenous in cells; host or cells: Jurkat cells (ATCC TIB-152), treated with pervanadate
Assay: Kinobeads assay, Aurora B
Assay type: binding
Details: for IC50: lysate of pervanadate-treated Jurkat cells, read-out: Inhibition values (IC50) Aur B
Method: The compounds of the present invention as described in the previous examples were tested in a Kinobeads™ assay as described for ZAP-70 (WO-A 2007/137867). Briefly, test compounds (at various concentrations) and the affinity matrix with the immobilized aminopyrido-pyrimidine ligand 24 were added to cell lysate aliquots and allowed to bind to the proteins in the lysate sample. After the incubation time the beads with captured proteins were separated from the lysate. Bound proteins were then eluted and the presence of JAK2 and JAK3 was detected and quantified using specific antibodies in a dot blot procedure and the Odyssey infrared detection system. Dose response curves for individual kinases were generated and IC50 values calculated. Kinobeads™ assays for ZAP-70 (WO-A 2007/137867) and for kinase selectivity profiling (WO-A 2006/134056) have been previously described.
The affinity matrix was washed two times with 15 mL of 1×DP buffer containing 0.2% NP40 (IGEPAL® CA-630, Sigma, #I3021) and then resuspended in 1×DP buffer containing 0.2% NP40 (3% beads slurry).
5×DP buffer 250 mM Tris-HCl pH 7.4, 25% Glycerol, 7.5 mM MgCl2, 750 mM NaCl, 5 mM Na3VO4; filter the 5×DP buffer through a 0.22 μm filter and store in aliquots at −80° C. The 5×DP buffer is diluted with H2O to 1×DP buffer containing 1 mM DTT and 25 mM NaF.
Stock solutions of test compounds were prepared in DMSO. In a 96 well plate 30 μL solution of diluted test compounds at 5 mM in DMSO were prepared. Starting with this solution a 1:3 dilution series (9 steps) was prepared. For control experiments (no test compound) a buffer containing 2% DMSO was used.
Cell lysate (approximately 50 mg protein per plate) was thawed in a water bath at room temperature and then stored on ice. To the thawed cell lysate 1×DP 0.8% NP40 buffer containing protease inhibitors (1 tablet for 25 mL buffer; EDTA-free protease inhibitor cocktail; Roche Diagnostics 1873580) was added in order to reach a final protein concentration of 10 mg/mL total protein. The diluted cell lysate was stored on ice. Mixed Molt4/Ramos lysate was prepared by combining one volume of Molt4 lysate and two volumes of Ramos lysate (ratio 1:2).
To a 96 well filter plate (Multiscreen HTS, BV Filter Plates, Millipore #MSBVN1250) were added per well: 100 μL affinity matrix (3% beads slurry), 3 μL of compound solution, and 50 μL of diluted lysate. Plates were sealed and incubated for 3 hours in a cold room on a plate shaker (Heidolph tiramax 1000) at 750 rpm. Afterwards the plate was washed 3 times with 230 μL washing buffer (1×DP 0.4% NP40). The filter plate was placed on top of a collection 1 plate (Greiner bio-one, PP-microplate 96 well V-shape, 65120) and the beads were then eluted with 20 μL of sample buffer (100 mM Tris, pH 7.4, 4% SDS, 0.00025% bromophenol blue, 20% glycerol, 50 mM DTT). The eluate was frozen quickly at −80° C. and stored at −20° C.
The kinases in the eluates were detected and quantified by spotting on nitrocellulose membranes and using a first antibody directed against the kinase of interest and a fluorescently labelled secondary antibody (anti-rabbit IRDye™ antibody 800 (Licor, #926-32211). The Odyssey Infrared Imaging system from LI-COR Biosciences (Lincoln, Nebr., USA) was operated according to instructions provided by the manufacturer (Schutz-Geschwendener et al, 2004. Quantitative, two-color Western blot detection with infrared fluorescence. Published May 2004 by LI-COR Biosciences, www.licor.com).
After spotting of the eluates the nitrocellulose membrane (BioTrace NT; PALL, #BTNT30R) was first blocked by incubation with Odyssey blocking buffer (LICOR, 927-40000) for 1 hour at room temperature. Blocked membranes were then incubated for 16 hours at the temperature shown in Table 5 with the first antibody diluted in Odyssey blocking buffer (LICOR #927-40000). Afterwards the membrane was washed twice for 10 minutes with PBS buffer containing 0.2% Tween 20 at room temperature. […]

T1 sequence (Q96GD4 whole entry): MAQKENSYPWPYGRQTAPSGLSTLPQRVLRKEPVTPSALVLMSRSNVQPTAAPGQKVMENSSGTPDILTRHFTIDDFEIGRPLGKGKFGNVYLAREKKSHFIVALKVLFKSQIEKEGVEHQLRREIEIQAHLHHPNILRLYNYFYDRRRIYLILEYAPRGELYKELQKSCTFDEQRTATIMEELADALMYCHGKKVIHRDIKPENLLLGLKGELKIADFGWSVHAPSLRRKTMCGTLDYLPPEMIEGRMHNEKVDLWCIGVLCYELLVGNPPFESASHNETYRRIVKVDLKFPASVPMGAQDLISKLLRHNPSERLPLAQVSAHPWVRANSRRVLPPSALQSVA

C[C@@H]1COCCN1c1cccc(Cn2ncc3cnc(Nc4cnn(C)c4)nc32)n1 [Example 1, (R)—N-(1-Methyl-1H-pyrazol-4-yl)-1-((6-(3-methylmorpholino)pyridin-2-yl)methyl)-1H-pyrazolo[3,4-d]pyrimidin-6-amine]
JAK3/AurB Fold Selectivity: 10-50 Fold | IC50: 1000 to 10000 nM

Cn1cc(Nc2ncc3cnn(Cc4cccc(N5CCOCC5)c4)c3n2)cn1 [Example 2, N-(1-Methyl-1H-pyrazol-4-yl)-1-(3-morpholinobenzyl)-1H-pyrazolo[3,4-d]pyrimidin-6-amine]
JAK3/AurB Fold Selectivity: >50 Fold | IC50: 1000 to 10000 nM

Cn1cc(Nc2ncc3cnn(Cc4cccc(N5CCOCC5)n4)c3n2)cn1 [Example 3, N-(1-Methyl-1H-pyrazol-4-yl)-1-((6-morpholinopyridin-2-yl)methyl)-1H-pyrazolo[3,4-d]pyrimidin-6-amine]
JAK3/AurB Fold Selectivity: 10-50 Fold | IC50: 100 to 1000 nM

CN(C)CCCn1cc(Nc2ncc3cnn(Cc4cccc(N5CCOCC5)c4)c3n2)cn1 [Example 4, N-(1-(3-(Dimethylamino)propyl)-1H-pyrazol-4-yl)-1-(3-morpholinobenzyl)-1H-pyrazolo[3,4-d]pyrimidin-6-amine]
JAK3/AurB Fold Selectivity: >50 Fold | IC50: 100 to 1000 nM

OCCn1cc(Nc2ncc3cnn(Cc4cccc(N5CCOCC5)c4)c3n2)cn1 [Example 5, 2-(4-((1-(3-Morpholinobenzyl)-1H-pyrazolo[3,4-d]pyrimidin-6-yl)amino)-1H-pyrazol-1-yl)ethanol]
JAK3/AurB Fold Selectivity: >50 Fold | IC50: 100 to 1000 nM

Cn1cc(Nc2ncc3cnn(Cc4cccc(C(=O)N5CCOCC5)c4)c3n2)cn1 [Example 6, (3-((6-((1-Methyl-1H-pyrazol-4-yl)amino)-1H-pyrazolo[3,4-d]pyrimidin-1-yl)methyl)phenyl)(morpholino)methanone]
JAK3/AurB Fold Selectivity: >50 Fold | IC50: 1000 to 10000 nM

Cn1cc(Nc2ncc3cnn(Cc4cccc(CN5CCOCC5)c4)c3n2)cn1 [Example 7, N-(1-Methyl-1H-pyrazol-4-yl)-1-(3-(morpholinomethyl)benzyl)-1H-pyrazolo[3,4-d]pyrimidin-6-amine]
JAK3/AurB Fold Selectivity: 10-50 Fold | IC50: 100 to 1000 nM

Cn1cc(Nc2ncc3cnn(Cc4cccc(N5CCCCC5)c4)c3n2)cn1 [Example 8, N-(1-Methyl-1H-pyrazol-4-yl)-1-(3-(piperidin-1-yl)benzyl)-1H-pyrazolo[3,4-d]pyrimidin-6-amine]
JAK3/AurB Fold Selectivity: 10-50 Fold | IC50: 1000 to 10000 nM

Cn1cc(Nc2ncc3cnn(Cc4cccc(C5CCOCC5)c4)c3n2)cn1 [Example 9, N-(1-Methyl-1H-pyrazol-4-yl)-1-(3-(tetrahydro-2H-pyran-4-yl)benzyl)-1H-pyrazolo[3,4-d]pyrimidin-6-amine]
JAK3/AurB Fold Selectivity: 10-50 Fold | IC50: 100 to 1000 nM

CN1CCN(c2cccc(Cn3ncc4cnc(Nc5cnn(C)c5)nc43)c2)CC1 [Example 10, N-(1-Methyl-1H-pyrazol-4-yl)-1-(3-(4-methylpiperazin-1-yl)benzyl)-1H-pyrazolo[3,4-d]pyrimidin-6-amine]
JAK3/AurB Fold Selectivity: 10-50 Fold | IC50: 100 to 1000 nM

Cc1c(Cn2ncc3cnc(Nc4cnn(C)c4)nc32)cccc1N1CCOCC1 [Example 11, N-(1-Methyl-1H-pyrazol-4-yl)-1-(2-methyl-3-morpholinobenzyl)-1H-pyrazolo[3,4-d]pyrimidin-6-amine]
JAK3/AurB Fold Selectivity: 10-50 Fold | IC50: 100 to 1000 nM

CNC(=O)Cn1cc(Nc2ncc3cnn(Cc4cccc(N5CCOCC5)c4)c3n2)cn1 [Example 12, N-Methyl-2-(4-((1-(3-morpholinobenzyl)-1H-pyrazolo[3,4-d]pyrimidin-6-yl)amino)-1H-pyrazol-1-yl)acetamide]
JAK3/AurB Fold Selectivity: 10-50 Fold | IC50: 100 to 1000 nM

CCOC(=O)C1CCCN(c2cccc(Cn3ncc4cnc(Nc5cnn(C)c5)nc43)c2)C1 (stereo not shown) [Example 13, Ethyl 1-(3-((6-((1-methyl-1H-pyrazol-4-yl)amino)-1H-pyrazolo[3,4-d]pyrimidin-1-yl)methyl)phenyl)piperidine-3-carboxylate]
JAK3/AurB Fold Selectivity: 10-50 Fold | IC50: ≥ 10000 nM

NC(=O)CCn1cc(Nc2ncc3cnn(Cc4cccc(N5CCOCC5)c4)c3n2)cn1 [Example 14, 3-(4-((1-(3-Morpholinobenzyl)-1H-pyrazolo[3,4-d]pyrimidin-6-yl)amino)-1H-pyrazol-1-yl)propanamide]
JAK3/AurB Fold Selectivity: 10-50 Fold | IC50: 100 to 1000 nM

Cn1cc(Nc2ncc3cnn(Cc4cc(N5CCOCC5)ccc4F)c3n2)cn1 [Example 15, 1-(2-Fluoro-5-morpholinobenzyl)-N-(1-methyl-1H-pyrazol-4-yl)-1H-pyrazolo[3,4-d]pyrimidin-6-amine]
JAK3/AurB Fold Selectivity: 10-50 Fold | IC50: 1000 to 10000 nM

CN(C)C(=O)CCn1cc(Nc2ncc3cnn(Cc4cccc(N5CCOCC5)c4)c3n2)cn1 [Example 16, N,N-Dimethyl-3-(4-((1-(3-morpholinobenzyl)-1H-pyrazolo[3,4-d]pyrimidin-6-yl)amino)-1H-pyrazol-1-yl)propanamide]
JAK3/AurB Fold Selectivity: 10-50 Fold | IC50: 100 to 1000 nM

Cn1cc(Nc2ncc3cnn(Cc4c(F)c(F)cc(N5CCOCC5)c4F)c3n2)cn1 [Example 17, N-(1-Methyl-1H-pyrazol-4-yl)-1-(2,3,6-trifluoro-5-morpholinobenzyl)-1H-pyrazolo[3,4-d]pyrimidin-6-amine]
JAK3/AurB Fold Selectivity: 10-50 Fold | IC50: 100 to 1000 nM

OCCCn1cc(Nc2ncc3cnn(Cc4cccc(N5CCOCC5)c4)c3n2)cn1 [Example 18, 3-(4-((1-(3-Morpholinobenzyl)-1H-pyrazolo[3,4-d]pyrimidin-6-yl)amino)-1H-pyrazol-1-yl)propan-1-ol]
JAK3/AurB Fold Selectivity: >50 Fold | IC50: 100 to 1000 nM

Cn1cc(Nc2ncc3cnn(Cc4cccc(N5CCC(F)(F)CC5)c4)c3n2)cn1 [Example 19, 1-(3-(4,4-Difluoropiperidin-1-yl)benzyl)-N-(1-methyl-1H-pyrazol-4-yl)-1H-pyrazolo[3,4-d]pyrimidin-6-amine]
JAK3/AurB Fold Selectivity: 10-50 Fold | IC50: ≥ 10000 nM

O=C(CCn1cc(Nc2ncc3cnn(Cc4cccc(N5CCOCC5)c4)c3n2)cn1)N1CCCCC1 [Example 20, 3-(4-((1-(3-Morpholinobenzyl)-1H-pyrazolo[3,4-d]pyrimidin-6-yl)amino)-1H-pyrazol-1-yl)-1-(piperidin-1-yl)propan-1-one]
JAK3/AurB Fold Selectivity: >50 Fold | IC50: 1000 to 10000 nM

Cn1cc(Nc2ncc3cnn(Cc4cccc(N5CCOCC5)c4F)c3n2)cn1 [Example 21, 1-(2-Fluoro-3-morpholinobenzyl)-N-(1-methyl-1H-pyrazol-4-yl)-1H-pyrazolo[3,4-d]pyrimidin-6-amine]
JAK3/AurB Fold Selectivity: >50 Fold | IC50: 1000 to 10000 nM

Cn1cc(Nc2ncc3cnn(Cc4cccc(N5CCNCC5)c4)c3n2)cn1 [Example 22, N-(1-Methyl-1H-pyrazol-4-yl)-1-(3-(piperazin-1-yl)benzyl)-1H-pyrazolo[3,4-d]pyrimidin-6-amine]
JAK3/AurB Fold Selectivity: >50 Fold | IC50: 100 to 1000 nM

FC(F)Cn1cc(Nc2ncc3cnn(Cc4cccc(N5CCOCC5)c4)c3n2)cn1 [Example 23, N-(1-(2,2-Difluoroethyl)-1H-pyrazol-4-yl)-1-(3-morpholinobenzyl)-1H-pyrazolo[3,4-d]pyrimidin-6-amine]
JAK3/AurB Fold Selectivity: >50 Fold | IC50: 1000 to 10000 nM
